# Assay results taken from ChEMBL document CHEMBL2176918, “Design and optimization of pyrazinecarboxamide-based inhibitors of diacylglycerol acyltransferase 1 (DGAT1) leading to a clinical candidate dimethylpyrazinecarboxamide phenylcyclohexylacetic acid (AZD7687)” (J Med Chem, 2012).
# Columns and labels:
# [1] = biological target: Voltage-gated inwardly rectifying potassium channel KCNH2 (Homo sapiens, UniProt Q12809); experiment: Inhibition of human ERG
# [2] = Half life in Han-Wistar rat at 2.54 to 5.4 uM/kg, po; assay type: ADME, organism-based; conditions: in vivo
# [3] = Volume of distribution in Beagle dog at 27.2 uM/kg, po or 1.4 uM/kg, iv; assay type: ADME, organism-based, Canis lupus familiaris; conditions: in vivo
# [4] = Clearance in Beagle dog at 27.2 uM/kg, po or 1.4 uM/kg, iv; assay type: ADME, organism-based, Canis lupus familiaris; conditions: in vivo
# Cytochrome P450 2C19 = Cytochrome P450 2C19 (Homo sapiens, UniProt P33261); experiment: Inhibition of CYP2C19; assay type: ADME
# Cytochrome P450 2D6 = Cytochrome P450 2D6 (Homo sapiens, UniProt P10635); experiment: Inhibition of CYP2D6; assay type: ADME
# [5] = biological target: T1, Diacylglycerol O-acyltransferase 2 (Homo sapiens, UniProt Q96PD7); experiment: Inhibition of human DGAT2 by liquid scintillography
# T1 sequence (Q96PD7 whole entry): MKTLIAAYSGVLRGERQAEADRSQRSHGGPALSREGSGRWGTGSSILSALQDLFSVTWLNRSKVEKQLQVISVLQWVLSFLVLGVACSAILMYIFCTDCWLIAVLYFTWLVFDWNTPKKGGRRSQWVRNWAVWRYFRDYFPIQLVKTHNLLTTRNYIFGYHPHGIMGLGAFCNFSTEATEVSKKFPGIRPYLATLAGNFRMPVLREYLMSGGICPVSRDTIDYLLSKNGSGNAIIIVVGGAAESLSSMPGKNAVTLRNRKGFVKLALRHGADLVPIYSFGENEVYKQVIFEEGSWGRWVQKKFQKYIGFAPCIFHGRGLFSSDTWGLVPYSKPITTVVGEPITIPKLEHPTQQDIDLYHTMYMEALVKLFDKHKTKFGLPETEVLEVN
# [6] = biological target: T2, Diacylglycerol O-acyltransferase 1 (Mus musculus, UniProt Q9Z2A7); experiment: Inhibition of DGAT1 in mouse liver microsomes; design: species or system Microsome
# T2 sequence (Q9Z2A7 whole entry): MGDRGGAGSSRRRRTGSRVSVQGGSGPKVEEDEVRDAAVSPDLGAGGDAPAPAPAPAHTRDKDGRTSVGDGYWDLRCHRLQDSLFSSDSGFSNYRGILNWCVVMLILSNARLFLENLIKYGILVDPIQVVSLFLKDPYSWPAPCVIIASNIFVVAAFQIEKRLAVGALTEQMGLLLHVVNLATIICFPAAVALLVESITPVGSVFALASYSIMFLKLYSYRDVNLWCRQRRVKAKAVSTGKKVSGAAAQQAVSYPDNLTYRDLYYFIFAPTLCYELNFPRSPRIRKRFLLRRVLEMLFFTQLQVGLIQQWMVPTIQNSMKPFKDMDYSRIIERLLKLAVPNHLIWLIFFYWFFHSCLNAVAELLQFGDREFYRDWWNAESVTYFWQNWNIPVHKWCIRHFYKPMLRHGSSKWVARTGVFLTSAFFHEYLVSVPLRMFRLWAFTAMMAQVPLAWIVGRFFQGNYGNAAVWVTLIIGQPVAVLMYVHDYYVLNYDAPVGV
# [7] = Chemical stability in pH 1 to 10 buffer at 25 degC; assay type: physicochemical
# [8] = Clearance in Han-Wistar rat at 5.4 uM/kg, po or 2.7 uM/kg, iv; assay type: ADME, organism-based; conditions: in vivo
# Cytochrome P450 1A2 = biological target: T3, Cytochrome P450 1A2 (Homo sapiens, UniProt P05177); experiment: Inhibition of CYP1A2; assay type: ADME
# T3 sequence (P05177 whole entry): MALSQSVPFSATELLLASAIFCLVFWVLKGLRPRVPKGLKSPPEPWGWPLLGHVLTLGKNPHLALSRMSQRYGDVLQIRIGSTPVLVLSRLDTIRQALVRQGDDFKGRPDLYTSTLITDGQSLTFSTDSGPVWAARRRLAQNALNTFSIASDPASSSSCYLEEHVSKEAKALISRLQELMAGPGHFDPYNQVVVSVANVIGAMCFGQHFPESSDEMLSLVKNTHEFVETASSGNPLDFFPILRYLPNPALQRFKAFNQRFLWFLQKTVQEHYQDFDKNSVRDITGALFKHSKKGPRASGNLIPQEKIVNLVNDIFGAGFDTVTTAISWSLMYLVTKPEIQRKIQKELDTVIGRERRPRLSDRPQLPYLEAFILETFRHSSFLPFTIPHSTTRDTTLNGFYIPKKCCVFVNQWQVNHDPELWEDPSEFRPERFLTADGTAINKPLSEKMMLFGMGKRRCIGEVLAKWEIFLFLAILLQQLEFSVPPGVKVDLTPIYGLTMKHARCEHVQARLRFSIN
# [9] = biological target: cAMP and cAMP-inhibited cGMP 3',5'-cyclic phosphodiesterase 10A (Homo sapiens, UniProt Q9Y233); experiment: Inhibition of PDE10A1 […]
# [10] = biological target: T4, Diacylglycerol O-acyltransferase 1 (Rattus norvegicus, UniProt Q9ERM3); experiment: Inhibition of DGAT1 in rat liver microsomes; design: species or system Microsome
# T4 sequence (Q9ERM3 whole entry): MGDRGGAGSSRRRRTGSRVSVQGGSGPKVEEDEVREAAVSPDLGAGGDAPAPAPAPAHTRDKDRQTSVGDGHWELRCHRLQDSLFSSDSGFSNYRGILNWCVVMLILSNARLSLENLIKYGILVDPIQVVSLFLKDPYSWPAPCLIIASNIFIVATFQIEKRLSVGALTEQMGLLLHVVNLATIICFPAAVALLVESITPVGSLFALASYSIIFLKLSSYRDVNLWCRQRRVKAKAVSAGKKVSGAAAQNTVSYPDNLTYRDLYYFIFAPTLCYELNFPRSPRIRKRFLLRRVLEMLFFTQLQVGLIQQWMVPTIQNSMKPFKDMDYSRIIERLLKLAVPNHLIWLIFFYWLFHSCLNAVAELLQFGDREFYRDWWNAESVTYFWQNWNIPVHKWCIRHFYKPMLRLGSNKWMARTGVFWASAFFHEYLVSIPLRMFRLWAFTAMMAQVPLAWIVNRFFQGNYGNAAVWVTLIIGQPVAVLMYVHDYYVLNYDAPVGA
# [11] = Terminal half life in human at 1 to 20 mg; assay type: ADME, organism-based; conditions: in vivo, read-out: beta t1/2 (converted)
# Rattus norvegicus [12] = experiment: Inhibition of adipose triacylglycerol synthesis in 14 hrs fasted Han-Wistar rat assessed as decrease in ratio of [3H]palmitic acid incorporation in to TAG and DAG at 8 mg/kg administered orally and measured 1.5 hrs post dose relative to control
# [13] = Clearance in C57BL/6 mouse at 8.16 uM/kg, po or 5.4 uM/kg, iv; assay type: ADME, organism-based; conditions: in vivo
# Rattus norvegicus [14] = experiment: Inhibition of plasma triacylglycerol excursion in 14 hrs fasted Han-Wistar rat at administered orally 2 hrs before bolus corn oil administration measured 1.5 hrs post corn oil challenge by oral lipid tolerance test relative to control
# Cytochrome P450 2C9 = Cytochrome P450 2C9 (Homo sapiens, UniProt P11712); experiment: Inhibition of CYP2C9; assay type: ADME
# Sequence of Cytochrome P450 2C9 (P11712 whole entry): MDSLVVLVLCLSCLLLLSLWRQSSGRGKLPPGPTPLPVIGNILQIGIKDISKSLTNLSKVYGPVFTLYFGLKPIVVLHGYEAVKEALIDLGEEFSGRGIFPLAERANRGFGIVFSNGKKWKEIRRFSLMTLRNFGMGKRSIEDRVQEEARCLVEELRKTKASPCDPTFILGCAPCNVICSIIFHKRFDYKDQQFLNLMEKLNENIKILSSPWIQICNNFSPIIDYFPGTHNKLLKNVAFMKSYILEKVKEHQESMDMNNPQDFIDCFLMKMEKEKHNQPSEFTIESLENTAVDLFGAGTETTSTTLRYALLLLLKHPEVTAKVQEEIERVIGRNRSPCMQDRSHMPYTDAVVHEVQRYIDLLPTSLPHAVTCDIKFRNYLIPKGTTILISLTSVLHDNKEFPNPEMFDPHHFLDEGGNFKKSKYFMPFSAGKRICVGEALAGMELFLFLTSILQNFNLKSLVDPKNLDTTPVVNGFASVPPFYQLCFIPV
# Sequence of Voltage-gated inwardly rectifying potassium channel KCNH2 (Q12809 whole entry): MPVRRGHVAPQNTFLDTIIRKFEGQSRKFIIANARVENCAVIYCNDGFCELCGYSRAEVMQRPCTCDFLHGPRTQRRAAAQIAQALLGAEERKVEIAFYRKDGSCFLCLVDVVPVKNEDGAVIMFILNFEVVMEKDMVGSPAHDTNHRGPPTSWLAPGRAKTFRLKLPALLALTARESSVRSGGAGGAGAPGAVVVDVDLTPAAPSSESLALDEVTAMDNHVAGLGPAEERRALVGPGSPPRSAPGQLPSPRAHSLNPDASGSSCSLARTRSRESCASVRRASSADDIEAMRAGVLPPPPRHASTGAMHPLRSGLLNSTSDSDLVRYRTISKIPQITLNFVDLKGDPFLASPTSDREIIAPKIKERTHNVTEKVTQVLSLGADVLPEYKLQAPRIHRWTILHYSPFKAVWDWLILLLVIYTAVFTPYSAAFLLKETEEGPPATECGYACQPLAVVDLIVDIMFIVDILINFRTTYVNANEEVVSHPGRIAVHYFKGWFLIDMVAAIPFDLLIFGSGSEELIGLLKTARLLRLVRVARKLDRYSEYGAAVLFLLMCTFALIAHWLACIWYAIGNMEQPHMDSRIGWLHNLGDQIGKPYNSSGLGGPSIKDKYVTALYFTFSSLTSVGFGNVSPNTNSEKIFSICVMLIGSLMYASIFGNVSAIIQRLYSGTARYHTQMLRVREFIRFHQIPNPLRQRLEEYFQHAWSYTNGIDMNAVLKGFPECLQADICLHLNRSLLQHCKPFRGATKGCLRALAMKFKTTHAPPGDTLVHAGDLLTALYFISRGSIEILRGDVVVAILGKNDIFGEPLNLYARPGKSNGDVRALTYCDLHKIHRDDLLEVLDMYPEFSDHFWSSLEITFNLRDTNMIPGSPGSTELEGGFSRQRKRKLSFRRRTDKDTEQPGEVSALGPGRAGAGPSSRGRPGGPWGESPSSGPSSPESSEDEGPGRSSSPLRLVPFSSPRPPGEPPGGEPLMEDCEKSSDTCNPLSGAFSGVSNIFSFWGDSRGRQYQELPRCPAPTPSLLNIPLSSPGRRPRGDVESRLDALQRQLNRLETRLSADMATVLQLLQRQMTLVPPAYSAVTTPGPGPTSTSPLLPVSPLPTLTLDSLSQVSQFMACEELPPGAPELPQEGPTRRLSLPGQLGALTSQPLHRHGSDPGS
# Sequence of cAMP and cAMP-inhibited cGMP 3',5'-cyclic phosphodiesterase 10A (Q9Y233 whole entry): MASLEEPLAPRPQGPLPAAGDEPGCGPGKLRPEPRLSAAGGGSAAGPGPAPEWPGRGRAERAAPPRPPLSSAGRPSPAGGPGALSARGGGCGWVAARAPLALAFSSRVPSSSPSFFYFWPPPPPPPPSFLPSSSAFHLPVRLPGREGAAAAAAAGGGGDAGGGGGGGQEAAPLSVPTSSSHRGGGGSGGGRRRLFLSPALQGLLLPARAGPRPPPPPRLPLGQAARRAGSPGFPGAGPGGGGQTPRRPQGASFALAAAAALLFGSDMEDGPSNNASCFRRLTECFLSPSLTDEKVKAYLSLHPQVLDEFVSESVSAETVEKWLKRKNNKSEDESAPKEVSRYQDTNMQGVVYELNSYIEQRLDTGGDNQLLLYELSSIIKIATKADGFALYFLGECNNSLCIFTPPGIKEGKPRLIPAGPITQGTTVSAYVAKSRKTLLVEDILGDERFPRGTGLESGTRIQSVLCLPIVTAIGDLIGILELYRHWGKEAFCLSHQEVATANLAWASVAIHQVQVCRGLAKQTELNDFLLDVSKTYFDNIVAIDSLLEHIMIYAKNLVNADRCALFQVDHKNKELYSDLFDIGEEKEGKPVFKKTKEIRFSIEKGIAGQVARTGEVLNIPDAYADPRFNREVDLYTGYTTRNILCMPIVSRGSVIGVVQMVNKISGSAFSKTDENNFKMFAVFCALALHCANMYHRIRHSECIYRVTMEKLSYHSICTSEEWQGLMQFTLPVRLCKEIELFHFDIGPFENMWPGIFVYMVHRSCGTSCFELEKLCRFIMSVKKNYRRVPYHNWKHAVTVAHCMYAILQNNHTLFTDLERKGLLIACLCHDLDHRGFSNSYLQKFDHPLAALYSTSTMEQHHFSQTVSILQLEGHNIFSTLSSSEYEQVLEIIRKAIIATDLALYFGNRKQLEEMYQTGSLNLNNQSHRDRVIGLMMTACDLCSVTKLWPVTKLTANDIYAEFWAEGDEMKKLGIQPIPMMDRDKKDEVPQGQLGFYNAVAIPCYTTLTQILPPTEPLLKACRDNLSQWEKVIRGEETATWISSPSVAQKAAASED
# Sequence of Cytochrome P450 2C19 (P33261 whole entry): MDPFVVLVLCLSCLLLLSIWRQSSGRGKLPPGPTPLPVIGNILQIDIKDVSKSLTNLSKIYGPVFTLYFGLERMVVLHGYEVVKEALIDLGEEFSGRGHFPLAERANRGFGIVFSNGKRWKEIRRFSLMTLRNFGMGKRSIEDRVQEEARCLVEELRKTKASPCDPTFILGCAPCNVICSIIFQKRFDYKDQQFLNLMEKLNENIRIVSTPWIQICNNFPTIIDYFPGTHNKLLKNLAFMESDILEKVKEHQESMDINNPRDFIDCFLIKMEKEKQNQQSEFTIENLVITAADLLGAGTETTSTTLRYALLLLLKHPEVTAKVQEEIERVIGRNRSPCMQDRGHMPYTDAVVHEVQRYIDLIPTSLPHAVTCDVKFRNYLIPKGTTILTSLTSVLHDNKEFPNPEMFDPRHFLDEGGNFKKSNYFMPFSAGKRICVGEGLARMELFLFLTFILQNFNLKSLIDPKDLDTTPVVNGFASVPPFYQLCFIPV
# Sequence of Cytochrome P450 2D6 (P10635 whole entry): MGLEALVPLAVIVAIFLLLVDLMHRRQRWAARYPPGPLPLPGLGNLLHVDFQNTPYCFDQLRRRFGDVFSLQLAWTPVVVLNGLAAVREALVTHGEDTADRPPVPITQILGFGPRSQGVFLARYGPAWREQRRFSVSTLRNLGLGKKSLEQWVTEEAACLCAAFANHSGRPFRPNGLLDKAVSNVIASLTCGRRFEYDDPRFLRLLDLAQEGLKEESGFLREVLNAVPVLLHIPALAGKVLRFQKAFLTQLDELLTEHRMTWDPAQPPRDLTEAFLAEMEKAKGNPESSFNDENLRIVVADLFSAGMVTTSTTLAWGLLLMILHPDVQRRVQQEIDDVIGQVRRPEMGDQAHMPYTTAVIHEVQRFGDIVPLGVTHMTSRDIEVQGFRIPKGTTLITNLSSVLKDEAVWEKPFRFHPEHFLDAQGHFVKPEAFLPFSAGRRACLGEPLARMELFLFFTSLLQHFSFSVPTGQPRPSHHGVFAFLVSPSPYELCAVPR
structure (smiles),measurement,setting,value
Cc1nc(C)c(-c2ccc(C3CCC(CC(=O)O)CC3)cc2)nc1C(N)=O (stereo not drawn) [AZD-7687],IC50,[1],> 32 µM
same,half-life,[2],14 h
same,Vd,[3],1 L/kg
same,clearance,[4],0.072 L/h/kg
same,IC50,Cytochrome P450 2C19,> 30 µM
same,IC50,Cytochrome P450 2D6,> 30 µM
same,IC50,[5],> 300 µM
same,IC50,[6],0.1 µM
same,half-life,[7],> 100 days
same,clearance,[8],0.03 L/h/kg
same,IC50,Cytochrome P450 1A2,> 30 µM
same,IC50,[9],5.5 µM
same,IC50,[10],0.15 µM
same,half-life,[11],9 h
same,IC50,Rattus norvegicus [12],0.132 µM
same,clearance,[13],0.0462 L/h/kg
same,IC50,Rattus norvegicus [14],0.042 µM
same,IC50,Cytochrome P450 2C9,> 30 µM
